One test relates to Wistar rats. Put plainly: Amygdala-kindling rat model. It is filed as in vivo. Conditions: 1 mg/kg po, time of challenge 30 min, HCl salt, formulation 90% MC 0.5% + 10% PEG400. On the procedure: Formulation and Administration.
Compounds were formulated in a 10% polyethylene glycol 400 (PEG 400)/90% aqueous solution of 0.5% methylcellulose (MC 0.5%). Firstly drugs are dissolved in PEG 400 and then suspended in MC 0.5% for oral gavage at X mg/5 mL/kg (X see table).
Amygdala-Kindling Rat Model:
1. Procedure: Adult male Wistar rats (Harlan Laboratories, Netherlands, or Charles Rivers, Germany; body weight 300-350 g) were stereotaxically implanted with twisted bipolar plastic-coated stainless steel electrode (MS333-2-BIU 10 mm, Plastics One) into the right basolateral amygdala under isoflurane anesthesia. To place the electrode, trepanations were made in the skull and the electrode was lowered into the right basolateral amygdala (from bregma: anteriorposterior (AP): −2.5 mm, medio-lateral (ML): −3.5 mm, dorso-ventral (DV): −8.6 mm; α=10°) and secured to the skull with screws and dental acrylate. After one week of recovery, they were handled daily and habituated over one week to the kindling set-up. Kindling procedure: For a kindling session each rat was placed individually into a smooth acrylic plastic, round-bottomed bowl (Ø 36 cm, height 36 cm, BASi movement-responsive caging system) and its intracranial implanted electrode was connected to the stimulator (STG4008, Multichannel Systems GmbH) and the recording devices (PowerLab 8/35, ADInstruments Ltd) via a cable (335-340/3 (C), Plastics One). For the kindling procedure, each rat was exposed once daily to an electrical stimulation and the behavioral symptoms of the evoked seizure were observed and classified according to the modified Racine scale (stage 0, arrest, wet dog shakes, normal behaviour; stage 1, facial twitches: nose, lips, eyes; stage 2, chewing, head nodding; stage 3, forelimb clonus; stage 4, rearing, falling on forelimbs; stage 5, rearing, falling on side or back, rolling). The electrical stimulus consists of a 1s-train of 50 Hz square-wave biphasic pulses of 1-ms duration at an intensity of 400 μA (suprathreshold intensity). […] Data Scoring and analysis. The duration of electroencephalographic seizures (afterdischarge, AD) was recorded using LabChart7 Pro software (ADlnstruments Ltd). Simultaneously, videos were recorded to evaluate seizure stage (SS).
2. Compound testing: Acute drug effects were evaluated in groups of 6-8 fully kindled rats in a randomized cross-over design with 48 h between drug and vehicle applications. Following oral administration of drug or vehicle, drug testing included determination of the afterdischarge threshold (the minimal stimulation intensity necessary to evoke an afterdischarge (electroencephalographically measured neuronal hyper-synchronous activity with an amplitude 2-times higher than baseline amplitude and a frequency of ≥1 Hz) of at least 3 sec duration) and monitoring electroencephalographic and behavioral correlates of the evoked seizure at ADT (afterdischarge threshold), including AD duration and SS, by a experimenter blind to treatment assignment.

Test [1] concerns primary neuronal cultures from embryonic rat brains. Nature of the test: Rat oscillation assay (FLIPR, neuronal calcium oscillations). The format is cell-based. As to conditions: Rattus norvegicus. An outline of the steps:
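Cortical neurons from E18 Wistar rat embryos, cultured 8–10 days at high density, loaded with 1 μM Fluo-8 AM; calcium oscillations recorded by FLIPR once per second in Mg-free HBSS with 2 mM CaCl2, 20 mM HEPES, pH 7.4. Two acquisitions ("Acute", 500 sec, compound added at 250 sec; "20 min"), ± Kv7 blocker XE-991.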

Read-outs that look alike come from different tables or passages of the source.

Take `C[C@H](NC(=O)NC1CC2(CCC2)C1)c1ccnc(OC(F)F)c1` (single isomer, unassigned) [Example 168]: in the test with Wistar rats, the “AD duration [% vs veh]” value is recorded as −84 % vs veh and the “Seizure stage [% vs veh]” value was −58 % vs veh. In test [1] (20 min, AUC of fluorescence measured 20 min after compound addition, read-out: FLIPR: IC50 [nM] 20 min), the IC50 (in general, the concentration that inhibits the measured activity by half) was 3 nM. Moreover, the IC50 in test [1] (Acute phase, ratio of AUC fluorescence before and after compound addition, read-out: FLIPR: IC50 [nM] acute) turned out to be 3.7 nM.

The record behind these values is patent US20230136562A1, “SPIROUREA DERIVATIVES” (Idorsia Pharmaceuticals Ltd, priority 2020, published 2023).
